According to PubChem BioAssay (NCI):
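The compound was tested at five concentrations on cells cultured in 96-well plates, with a 48-hour exposure period. GI50 = concentration required for 50% inhibition of growth. TGI: concentration producing complete growth inhibition.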

System: IGROV1 ovarian
Assay: growth of human tumour cells (NCI), 48 h

| SMILES | GI50 [µM] | TGI [µM] |
| --- | --- | --- |
| COc1ccc(/C=C2/N=C(c3ccccc3)N(c3c(C)n(C)n(-c4ccccc4)c3=O)C2=O)cc1OC | > 100 | > 100 |
| CCCc1nc(NC#N)nc(C(=O)Nc2ccccc2)c1CC | – | > 100 |
| O=C(CCc1n[nH]c(=S)o1)Nc1ccccc1C(F)(F)F | – | > 100 |
| CCn1c2ccccc2c2cc(NC(=O)Nc3ccc([N+](=O)[O-])cc3C)ccc21 | 3.38 | 14.1 |
| Cc1ccc(NC(=O)CCc2cc(C(C)(C)C)nc(=S)[nH]2)cc1C | – | > 100 |
| Cc1[nH]c2ccccc2c1C(=O)/C=C/c1ccccc1O | – | > 100 |
| O=C(Nc1nc(=S)c2c(ncn2CCOC(=O)c2ccccc2)[nH]1)c1ccccc1 | – | > 100 |
| COc1ccc(CC2NCCc3c2[nH]c2ccccc32)cc1 (stereo unspecified) | – | > 100 |
| O=C(CSc1nc2ccccc2nc1-c1ccccc1)Nc1ccc(F)cc1 | 42.4 | > 100 |
| COc1ccc2c(c1)C(=O)c1c-2c(N2CCN(C(=O)CNCCNCCO)CC2)nc2ccccc12 | 1.72 | 4.73 |
| Cc1ccc(/C=C/C(=O)c2sc(-c3nc(C)c(C(=O)/C=C/c4ccc(C)cc4)s3)nc2C)cc1 | – | > 100 |
| Cn1cc(-c2csc(-c3c[nH]c4ccc(F)cc34)n2)c2cnccc21 | 1.59 | 3.09 |
| O=C1Nc2ccccc2/C1=N\[O-].O=C1Nc2ccccc2/C1=N\[O-].[Cu+2] | > 100 | > 100 |
| CCC[CH2][Sn]([Cl])([CH2]CCC)[CH2]CCC | 0.169 | 0.625 |
| O=c1ccn([C@H]2CSC[C@@H](CO)C2)c(=O)[nH]1 | – | > 100 |
| COc1cc(-n2cc(-c3ccc(F)cc3)[nH]c2=O)cc(OC)c1OC | > 100 | > 100 |

System: MCF7 breast
Assay: growth of human tumour cells (NCI), 48 h

| SMILES | GI50 [µM] | TGI [µM] |
| --- | --- | --- |
| CN(C)CC[PH+](c1ccccc1)c1ccccc1.CN(C)CC[PH+](c1ccccc1)c1ccccc1.[Cl-].[Pd+2] | > 100 | > 100 |
| O=C(c1ccccc1)c1cc2ccccc2o1 | > 100 | > 100 |
| O=C(Nc1ccncc1)C(=O)c1cn(S(=O)(=O)c2ccc(F)cc2)c2ccccc12 | 0.779 | > 100 |
| C=C(C)[C@@H]1CC[C@]2(C)[C@H](CC=C3[C@@H]4CC(C)(C)CC[C@]4(C(N)=O)CC[C@]32C)[C@@]1(C)CCC#N | 2.81 | 24.5 |
| O=C(N[C@@H](c1ccc(Cl)c(Cl)c1)C1CNC1)c1ccc2cnccc2c1 | 0.2 | 1.59 |
| CO/N=C(\COc1ccc2c(c1)oc(=O)c1cc(OC)ccc12)c1ccc(OC)cc1 | > 100 | > 100 |
| COc1cc(F)ccc1-c1ncnc(Nc2cccc(CS(C)(=N)=O)c2)n1 (stereo unspecified) | 0.414 | > 100 |
| [Cl][Hg][c]1cc[c]([Hg][Cl])o1 | 0.529 | 8.84 |
| O=C(CC1(O)C(=O)N(Cc2ccccc2)c2ccc(F)cc21)c1ccc(C(=O)NCC2CCC3(CC2)OOC2(CCCCC2)OO3)cc1 (stereo unspecified) | 1.92 | > 31.9 |
| COc1cc2c3c(n(C)c(=O)c2cc1OC)-c1cc2c(cc1/C3=C\CN)OCO2 | 0.236 | > 31.6 |
| COc1ccc(/C=C2/N=C(c3ccccc3)N(c3c(C)n(C)n(-c4ccccc4)c3=O)C2=O)cc1OC | 70.5 | > 100 |
| CCn1c2ccccc2c2cc(NC(=O)Nc3ccc([N+](=O)[O-])cc3C)ccc21 | 3.7 | > 100 |
| O=C(CSc1nc2ccccc2nc1-c1ccccc1)Nc1ccc(F)cc1 | 57.2 | > 100 |
| COc1ccc2c(c1)C(=O)c1c-2c(N2CCN(C(=O)CNCCNCCO)CC2)nc2ccccc12 | 1.75 | 3.5 |
| O=C1Nc2ccccc2/C1=N\[O-].O=C1Nc2ccccc2/C1=N\[O-].[Cu+2] | > 100 | > 100 |
| COc1cc(-n2cc(-c3ccc(F)cc3)[nH]c2=O)cc(OC)c1OC | > 100 | > 100 |
